This passage reports inhibition results from US8686150B2 (Sanofi, priority 2011, dated 2014).

This assay deals with T1, human full-length recombinant PKC βII (Homo sapiens, UniProt P05771).
T1 construct: Active human full-length recombinant PKC βII; purchased Invitrogen GmbH, Darmstadt, Germany
As to the kind of experiment: Determination of PKC βII inhibition (Caliper mobility-shift kinase assay, Fluorescein-RFARKGSLRQKNV peptide substrate). To be noted: example compounds at a final concentration of 1.14 μM (±0.15 μM). It is filed as biochemical. An outline of the steps: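 Compounds were tested at 1.14 μM final. Enzyme was activated by PS, DAG and CaCl2 in Hepes pH 7.4 with MgCl2, with substrate 3 μM and ATP 120 μM as pre-mix concentrations. After 60 min at 32 °C and an EDTA stop, Caliper separation gave fractional turnover, which was normalised to no-compound and no-enzyme controls.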

T1 sequence (P05771 1-673 isoform P05771-2): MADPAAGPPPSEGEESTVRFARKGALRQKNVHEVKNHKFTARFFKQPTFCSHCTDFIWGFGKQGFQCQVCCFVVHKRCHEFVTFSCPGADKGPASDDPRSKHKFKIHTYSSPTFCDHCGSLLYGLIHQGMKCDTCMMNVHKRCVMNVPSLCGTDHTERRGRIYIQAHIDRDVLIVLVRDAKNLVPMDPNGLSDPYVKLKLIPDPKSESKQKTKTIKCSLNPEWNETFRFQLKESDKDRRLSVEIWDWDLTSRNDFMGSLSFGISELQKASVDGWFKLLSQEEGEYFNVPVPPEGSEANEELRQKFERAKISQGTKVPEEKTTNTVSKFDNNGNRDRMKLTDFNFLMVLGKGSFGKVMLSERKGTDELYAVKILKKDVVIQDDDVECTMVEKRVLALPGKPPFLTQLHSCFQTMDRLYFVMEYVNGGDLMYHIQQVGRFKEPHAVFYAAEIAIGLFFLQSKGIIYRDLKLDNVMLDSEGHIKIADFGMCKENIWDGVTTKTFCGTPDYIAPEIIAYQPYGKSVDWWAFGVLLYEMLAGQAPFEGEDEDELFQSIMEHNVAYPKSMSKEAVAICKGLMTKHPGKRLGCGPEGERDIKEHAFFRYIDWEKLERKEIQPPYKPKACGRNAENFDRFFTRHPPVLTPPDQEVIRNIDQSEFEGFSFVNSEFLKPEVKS

Take `CCC[C@H]1CN(C(=O)c2cc(-c3ccc(O)cc3F)nc3[nH]nc(C)c23)CCN1` [Example 422, [6-(2-Fluoro-4-hydroxy-phenyl)-3-methyl-1H-pyrazolo[3,4-b]pyridin-4-yl]-((S)-3-propyl-piperazin-1-yl)-methanone]: the inhibition at 1.14 µM turned out to be 95%.

On to `Cc1n[nH]c2nc(-c3ccc(O)cc3F)cc(C(=O)N3CCNC(C4CC4)C3)c12` (stereo not drawn) [Example 423, (3-Cyclopropyl-piperazin-1-yl)-[6-(2-fluoro-4-hydroxy-phenyl)-3-methyl-1H-pyrazolo[3,4-b]pyridin-4-yl]-methanone], for which the inhibition at 1.14 µM was found to be 84%.

`Cc1n[nH]c2nc(-c3ccc(O)cc3F)cc(C(=O)N3CCN[C@@H](C)C3)c12` [Example 424, [6-(2-Fluoro-4-hydroxy-phenyl)-3-methyl-1H-pyrazolo[3,4-b]pyridin-4-yl]-((S)-3-methyl-piperazin-1-yl)-methanone]: the inhibition at 1.14 µM was determined as 100%.

Turning to `Cc1n[nH]c2nc(-c3ccc(O)cc3F)cc(C(=O)N3CCNC(C)(C)C3)c12` [Example 425, (3,3-Dimethyl-piperazin-1-yl)-[6-(2-fluoro-4-hydroxy-phenyl)-3-methyl-1H-pyrazolo[3,4-b]pyridin-4-yl]-methanone], the inhibition at 1.14 µM was 88%.

Regarding `Cc1n[nH]c2nc(-c3ccc(O)cc3F)cc(C(=O)N3CCN[C@H](C)C3)c12` [Example 426, [6-(2-Fluoro-4-hydroxy-phenyl)-3-methyl-1H-pyrazolo[3,4-b]pyridin-4-yl]-((R)-3-methyl-piperazin-1-yl)-methanone], the inhibition at 1.14 µM is 87%.

`Cc1n[nH]c2nc(-c3ccc(O)cc3F)cc(C(=O)N3CC(C)(C)NCC3C)c12` (stereo not drawn) [Example 427, [6-(2-Fluoro-4-hydroxy-phenyl)-3-methyl-1H-pyrazolo[3,4-b]pyridin-4-yl]-(2,5,5-trimethyl-piperazin-1-yl)-methanone]: the inhibition at 1.14 µM stood at 99%.

Turning to `Cc1n[nH]c2nc(-c3ccc(O)cc3F)cc(C(=O)N3C[C@@H](C)NC[C@H]3C)c12` [Example 428, ((2R,5R)-2,5-Dimethyl-piperazin-1-yl)-[6-(2-fluoro-4-hydroxy-phenyl)-3-methyl-1H-pyrazolo[3,4-b]pyridin-4-yl]-methanone], the inhibition at 1.14 µM stood at 35%.

With `Cc1n[nH]c2nc(-c3ccc(O)cc3F)cc(C(=O)N3C[C@@H](C)NC[C@@H]3C)c12` [Example 429, ((2S,5R)-2,5-Dimethyl-piperazin-1-yl)-[6-(2-fluoro-4-hydroxy-phenyl)-3-methyl-1H-pyrazolo[3,4-b]pyridin-4-yl]-methanone], the inhibition at 1.14 µM was 98%.

As for `Cc1n[nH]c2nc(-c3ccc(O)cc3F)cc(C(=O)N3C[C@H](C)NC[C@@H]3C)c12` [Example 430, ((2S,5S)-2,5-Dimethyl-piperazin-1-yl)-[6-(2-fluoro-4-hydroxy-phenyl)-3-methyl-1H-pyrazolo[3,4-b]pyridin-4-yl]-methanone], the inhibition at 1.14 µM came out at 92%.

For the compound `CC[C@H]1CNCCN1C(=O)c1cc(-c2ccc(O)cc2F)nc2[nH]nc(C)c12` [Example 431, ((S)-2-Ethyl-piperazin-1-yl)-[6-(2-fluoro-4-hydroxy-phenyl)-3-methyl-1H-pyrazolo[3,4-b]pyridin-4-yl]-methanone], the inhibition at 1.14 µM amounted to 97%.

On to `Cc1n[nH]c2nc(-c3ccc(O)cc3F)cc(C(=O)N3CCC(N)(C(F)(F)F)C3)c12` (stereo not drawn) [Example 432, (3-Amino-3-trifluoromethyl-pyrrolidin-1-yl)-[6-(2-fluoro-4-hydroxy-phenyl)-3-methyl-1H-pyrazolo[3,4-b]pyridin-4-yl]-methanone], for which the inhibition at 1.14 µM came to 42%.

In the case of `Cc1n[nH]c2nc(-c3ccc(O)cc3F)cc(C(=O)N3CCNCC34CCCC4)c12` [Example 433, (6,9-Diaza-spiro[4.5]dec-6-yl)-[6-(2-fluoro-4-hydroxy-phenyl)-3-methyl-1H-pyrazolo[3,4-b]pyridin-4-yl]-methanone], the inhibition at 1.14 µM amounted to 98%.

Usually inhibition stands for the percentage by which the read-out fell short of the control.
